# Assay results reported in patent publication US12030897B2, “Pyrrolo[2,1-f][1,2,4]triazine derivatives serving as selective HER2 inhibitors and application thereof” (MEDSHINE DISCOVERY INC., priority 2018, dated 2024).
# Values joined by “and” are separate entries in the source; they are usually repeats but may differ in a detail not shown here. Equal entries are not always repeated. Where two headings read alike, the source gives them in different places.
# Legend:
# [1] = test system: human breast cancer BT-474 cell subcutaneous xenograft tumor; assay: In vivo efficacy, BT-474 subcutaneous xenograft tumor model; design: species or system BALB/c nude mice; conditions: BT-474 xenograft, 100 mg/kg
# Procedure: Experiment object: to study the in vivo efficacy of the tested compound in human breast cancer BT-474 cell BALB/c nude mouse subcutaneous xenograft tumor model.
# Experimental animals: female BALB/c nude mice, 6 to 8 weeks old, weight: 18 to 22 grams; Supplier Beijing Weitonglihua Laboratory Animal Technology Co., Ltd.
# Human breast cancer BT474 cells were cultured in a monolayer in vitro. The culture conditions were: ATCC Hybri-Care Medium with 1.5 g/L sodium bicarbonate, 10% fetal bovine serum, 100 U/mL penicillin and 100 μg/mL streptomycin, and 37° C., 5% CO2 incubator. Conventional digestion treatment with pancreatin-EDTA for passage was carried out twice a week. When the cell saturation was 80% to 90%, and the number reached the requirement, the cells were collected, counted and inoculated.
# 0.2 mL (1×10^7 cells) of BT474 cells (with matrigel in a volume ratio of 1:1) were subcutaneously inoculated on the right back of each mouse. The grouping and administration were started when the average tumor volume reached about 168 mm^3. (Estrogen tablets were inoculated three days before cell inoculation).
# 7.3 the Preparation of the Tested Samples, Tumor Measurement, Experimental Index and Statistical Analysis were the Same as in Experimental Example 6.
# NCI-N87 cell = assay: Cell proliferation inhibitory activity, Cell-Titer-Glo, NCI-N87; type: cell-based, human; conditions: Homo sapiens, NCI-N87, 72 h; 3 days incubation
# Text: (§1) Experiment object: to detect the inhibitory activity of the tested compound on cell proliferation.
# (§2) Experimental principle: the luciferase in the Cell-Titer-Glo reagent uses luciferin, oxygen and ATP as reaction substrates to produce oxyluciferin and release energy in the form of light. Since the luciferase reaction requires ATP, the total amount of light produced by the reaction is proportional to the total amount of ATP that reflects cell viability.
# (§3) Experimental Materials: • cell lines: NCI-N87 cell line (ATCC-CRL-5822); BT-474 cell line (ATCC-HTB-20) • Cell culture medium: RPMI 1640 medium (Invitrogen #22400-105; 10% serum Invitrogen #10090148; L-glutamine 1×, Gibco #25030-081; double antibody Hyclone #SV30010) • CellTiter-Glo® luminescence cell viability detection kit (Promega #G7573) • 384-well cell culture plate (Greiner #781090) • Compound plate (LABCYTE #LP-0200) • CO2 incubator (Thermo #371) • Vi-cell cell counter (Beckman Coulter) • Pipette (Eppendorf) • Pipette (Greiner) • Pipetting gun (Eppendorf) • Multifunctional microplate reader (Envision Reader) • ECHO Liquid-handling workstation (Labcyte-ECHO555)
# (§4) The cells were inoculated in a 384-well plate with a density of 1000 cells per well and 25 μL per well. The edge wells were not inoculated with cells, and was supplemented with 25 μL of phosphate buffer.
# (§5) The compound was added to the plate with 9 μL per well.
# (§6) (2) The compound was diluted with ECHO liquid-handling workstation, and each well of the cell plate was added with 125 nL of compound. Each well of the cell wells of columns 2 and 23 was added with 125 nL of DMSO, and each well of the Media wells of columns 1 and 24 was added with 125 nL of DMSO.
# (§7) (3) Each well of the cell plate was supplemented with 25 μL of culture medium, and the final volume in each well of the cell plate was 50 μL. The concentration of the compound was 10 μM, which was subjected to 3 fold dilution to obtain 10 concentrations. Each concentration was duplicated in left and right wells, and the final DMSO concentration was 0.25%.
# (§8) 2.3 After adding the compound, it was centrifuged at 1000 rpm for 1 min. The cell plate was placed in a 37° C., 5% CO2 incubator for 3 days.
# (§9) The cell plate was taken from the incubator and equilibrated at room temperature for 30 min. 25 μL of Cell-Titer-Glo reagent was added to each well, shaken for 1 min to make it thoroughly mixed, and centrifuged at 1000 rpm for 1 min. After 10 min, the plate was read on PerkinElmer Envision, and the […] reading time was set to 0.2 seconds.
# [2] = Pharmacokinetic properties in mice; type: in vivo; conditions: female, Balb/c; for clearance / Vd / bioavailability: plasma, mouse; for Vd: read-out: Vdss; for bioavailability: read-out: F (bioavailability); for AUC(0-inf) / AUC(0-t) / half-life / Cmax: mouse plasma
# Procedure: The tested compound was dissolved in 10% DMSO/45% PEG400/45% water, vortexed and sonicated to prepare a clear solution with the corresponding concentration, which was filtered through a millipore filter for use. 18 to 20 grams of Balb/c female mice were selected, and the candidate compound solution was administered intravenously at a dose of 1 or 2 mg/kg. The tested compound was dissolved in 10% NMP/10% polyethylene glycol-15-hydroxystearate/80% water, vortexed and sonicated to prepare a clear solution with the corresponding concentration, which was filtered through a millipore filter for use. 18 to 20 grams of Balb/c female mice were selected, and the candidate compound solution was administered orally at a dose of 2 or 10 mg/kg. The whole-blood for a certain period of time was collected to prepare plasma. The drug concentration was analyzed by the LC-MS/MS method, and the pharmacokinetic parameters were calculated by the Phoenix WinNonlin software (Pharsight, USA).
# BT-474 cell = assay: Cell proliferation inhibitory activity, Cell-Titer-Glo, BT-474; type: cell-based; conditions: Homo sapiens, BT-474, 72 h; 3 days incubation
# Text: as §1, §2, §3, §4, §5, §6, §7, §8, §9
compound,measurement,setting,value
Cc1cc(Nc2ncnn3ccc(CN4CCC(N)CC4)c23)ccc1Oc1ccn2ncnc2c1 [Example 4],RTV,[1]; day 20,0.20 ± 0.02
same,T/C,[1]; day 20,2.62%
same,TGI,[1]; day 20,112.93%
same,Tumor volume,"[1]; day 20 (head: Day 21), mean ± SEM",33 mm^3 and 33 ± 3 mm^3
same,IC50,NCI-N87 cell,7 nM
same,clearance,[2]; IV 1 mg/kg,19.2 mL/min/kg
same,Vd,[2]; IV 1 mg/kg,2.3 L/kg
same,clearance,[2]; IV 2 mg/kg,33 mL/min/kg
same,Vd,[2]; IV 2 mg/kg,2.81 L/kg
same,bioavailability,[2]; PO 2 mg/kg,22.7%
same,bioavailability,[2]; PO 10 mg/kg,40.2%
same,AUC(0-inf),[2]; IV 1 mg/kg,1.57 µM·h
same,AUC(0-t),[2]; IV 1 mg/kg,1.52 µM·h
same,half-life,[2]; IV 1 mg/kg,1.65 h
same,AUC(0-inf),[2]; IV 2 mg/kg,2.15 µM·h
same,AUC(0-t),[2]; IV 2 mg/kg,2.13 µM·h
same,half-life,[2]; IV 2 mg/kg,1.34 h
same,AUC(0-inf),[2]; PO 2 mg/kg,0.95 µM·h
same,AUC(0-t),[2]; PO 2 mg/kg,0.928 µM·h
same,Cmax,[2]; PO 2 mg/kg,306 nM
same,half-life,[2]; PO 2 mg/kg,1.37 h
same,AUC(0-inf),[2]; PO 10 mg/kg,4.33 µM·h
same,AUC(0-t),[2]; PO 10 mg/kg,4.28 µM·h
same,Cmax,[2]; PO 10 mg/kg,1250 nM
same,half-life,[2]; PO 10 mg/kg,1.08 h
same,IC50,BT-474 cell,23 nM
